Data set [1] can be described thus: Lipophilicity, log P of the compound. In kind it is physicochemical. The note with it: octanol/water.
Data set [2] can be described thus: Distribution coefficient, log D of the compound at pH 7.4. In kind it is physicochemical. The note with it: octanol/water.

Each structure is given as a SMILES string.

The logP is the decadic logarithm of the partition coefficient of the neutral form, usually between octanol and water. What is called logD is lipophilicity at a set pH, counting ionised and neutral species.

In the case of `Fc1cccc(COc2ccc(Nc3ncnc4ccc(-c5nccc(N6CCOCC6)n5)cc34)cc2Cl)c1`, the logP in data set [1] (read-out: logP) is 6.5.

With `Cc1ccnc(Nc2ncnc3ccc(-c4cccc(N5CCOCC5)c4)cc23)n1`, in data set [1] (read-out: logP), the logP is 3.9. For the same compound, the logD in data set [2] (read-out: logD) is 2.9.

For `Fc1cccc(COc2ccc(Nc3ncnc4ccc(-c5nnc(N6CCOCC6)[nH]5)cc34)cc2Cl)c1`, in data set [1] (read-out: logP), the logP worked out at 5.3.

As for `Fc1cccc(COc2ccc(Nc3ncnc4ccc(-n5nncc5CN5CCOCC5)cc34)cc2Cl)c1`, the logP in data set [1] (read-out: logP) was 5.1.

On to `c1cnc(Nc2ncnc3ccc(-c4ccnc(N5CCOCC5)n4)cc23)nc1`, for which the logP in data set [1] (read-out: logP) came out at 2.9. In data set [2] (read-out: logD), the logD was 2.5.

`c1cncc(Nc2ncnc3ccc(-c4cccc(N5CCOCC5)c4)cc23)c1`: the log partition coefficient (logP) in data set [1] (read-out: logP) stood at 3.8. For the same compound, the logD in data set [2] (read-out: logD) was 3.9.

As to `Cc1cnnc(Nc2ncnc3ccc(-c4cccc(N5CCOCC5)c4)cc23)c1`, the log partition coefficient (logP) in data set [1] (read-out: logP) came out at 3.9.

On to `Cc1nnc(Nc2ncnc3ccc(-c4cccc(N5CCOCC5)c4)cc23)nc1C`, for which the logP in data set [1] (read-out: logP) stood at 3. The logD in data set [2] (read-out: logD) worked out at 2.8.

Consider `O=C(CN1CCOCC1)Nc1ccc2ncnc(Nc3ccc(OCc4cccc(F)c4)c(Cl)c3)c2c1`, for which the log partition coefficient (logP) in data set [1] (read-out: logP) came out at 4.7. For the same compound, the logD in data set [2] (read-out: logD) is 4.5.

For the compound `c1cnc(Nc2ncnc3ccc(-c4nccc(N5CCOCC5)n4)cc23)nc1`, the logP in data set [1] (read-out: logP) is 2.9. In addition, in data set [2] (read-out: logD), the logD is 2.

Turning to `c1cc(-c2ccc3ncnc(Nc4nncs4)c3c2)cc(N2CCOCC2)c1`, in data set [1] (read-out: logP), the log partition coefficient (logP) is 3.5.

As for `c1cc(-c2ccc3ncnc(Nc4cccnn4)c3c2)cc(N2CCOCC2)c1`, the logP in data set [1] (read-out: logP) came out at 3.4. For the same compound, the logD in data set [2] (read-out: logD) stood at 3.

Turning to `c1cc(-c2ccc3ncnc(Nc4ccncn4)c3c2)cc(N2CCOCC2)c1`, the log partition coefficient (logP) in data set [1] (read-out: logP) was 3.7. Also, the log distribution coefficient (logD) in data set [2] (read-out: logD) was determined as 3.1.

As to `c1cc(Nc2ncnc3ccc(-c4ccnc(N5CCOCC5)n4)cc23)ccn1`, the log partition coefficient (logP) in data set [1] is 2.9. In data set [2], this compound gave a logD of 3.8.

Turning to `COc1ccc(Nc2ncnc3ccc(-c4cccc(N5CCOCC5)c4)cc23)cc1Cl`, the lipophilicity (logP) in data set [1] (read-out: logP) is 5.4.

For `Nc1ncccc1Nc1ncnc2ccc(-c3cccc(N4CCOCC4)c3)cc12`, the lipophilicity (logP) in data set [1] (read-out: logP) came to 3.5. Also, in data set [2] (read-out: logD), the pH-dependent lipophilicity (logD) was 2.9.

On to `c1cc(-c2ccc3ncnc(Nc4cnccn4)c3c2)cc(N2CCOCC2)c1`, for which the lipophilicity (logP) in data set [1] (read-out: logP) was determined as 3.2. Moreover, in data set [2] (read-out: logD), the pH-dependent lipophilicity (logD) was determined as 3.1.

Turning to `c1cc(Nc2ncnc3ccc(-c4nccc(N5CCOCC5)n4)cc23)ccn1`, the logP in data set [1] is recorded as 3. Moreover, the logD in data set [2] is 3.4.

In the case of `c1cc(-c2ccc3ncnc(Nc4nccs4)c3c2)cc(N2CCOCC2)c1`, the lipophilicity (logP) in data set [1] (read-out: logP) amounted to 4.3.

For the compound `Cc1cnc(Nc2ncnc3ccc(-c4cccc(N5CCOCC5)c4)cc23)s1`, the logP in data set [1] (read-out: logP) was determined as 5.

For `c1cc(-c2ccc3ncnc(Nc4cncnc4)c3c2)cc(N2CCOCC2)c1`, the logP in data set [1] (read-out: logP) was determined as 3.1. In addition, in data set [2] (read-out: logD), the logD turned out to be 3.2.

For `O=c1nc(Nc2ncnc3ccc(-c4cccc(N5CCOCC5)c4)cc23)c(F)c[nH]1`, the log partition coefficient (logP) in data set [1] (read-out: logP) amounted to 2.7. The pH-dependent lipophilicity (logD) in data set [2] (read-out: logD) stood at 2.2.

Regarding `CCn1nccc1Nc1ncnc2ccc(-c3cccc(N4CCOCC4)c3)cc12`, the logP in data set [1] (read-out: logP) was 3.9. The logD in data set [2] (read-out: logD) came out at 3.2.

As to `O=c1nc(Nc2ncnc3ccc(-c4cccc(N5CCOCC5)c4)cc23)cc[nH]1`, the logP in data set [1] (read-out: logP) came to 2.5.

With `c1cc(-c2ccc3ncnc(Nc4ncco4)c3c2)cc(N2CCOCC2)c1`, the logP in data set [1] (read-out: logP) was determined as 3.6.

With `Cc1cc(Nc2ncnc3ccc(-c4cccc(N5CCOCC5)c4)cc23)on1`, the logP in data set [1] (read-out: logP) turned out to be 3.6.

Regarding `COc1cnc(Nc2ncnc3ccc(-c4cccc(N5CCOCC5)c4)cc23)cn1`, in data set [1] (read-out: logP), the logP turned out to be 3.6. Further, in data set [2] (read-out: logD), the logD is 3.8.

For the compound `Nc1cccnc1Nc1ncnc2ccc(-c3cccc(N4CCOCC4)c3)cc12`, the logP in data set [1] (read-out: logP) was 3.5. Further, the logD in data set [2] (read-out: logD) came to 2.8.

For the compound `c1cc(-c2ccc3ncnc(Nc4ccncc4)c3c2)cc(N2CCOCC2)c1`, the logP in data set [1] (read-out: logP) worked out at 3.8. Further, the logD in data set [2] (read-out: logD) was determined as 4.1.

Take `c1cc(-c2ccc3ncnc(Nc4nccnn4)c3c2)cc(N2CCOCC2)c1`: in data set [1] (read-out: logP), the logP was 2.8.

For the compound `c1ccc(Nc2ncnc3ccc(-c4cccc(N5CCOCC5)c4)cc23)nc1`, the logP in data set [1] (read-out: logP) was found to be 4.4. In addition, in data set [2] (read-out: logD), the logD turned out to be 3.9.

As to `c1cc(-c2ccc3ncnc(Nc4cncs4)c3c2)cc(N2CCOCC2)c1`, the log partition coefficient (logP) in data set [1] (read-out: logP) turned out to be 3.8.

For the compound `Fc1cccc(COc2ccc(Nc3ncnc4ccc(-c5ccnc(N6CCOCC6)n5)cc34)cc2Cl)c1`, in data set [1] (read-out: logP), the logP came out at 6.5.

Compound `c1cc(-c2ccc3ncnc(Nc4ccnnc4)c3c2)cc(N2CCOCC2)c1` gave a logP in data set [1] of 2.8. The compound further showed a logD in data set [2] of 3.1.

With `CC(=O)Nc1cccnc1Nc1ncnc2ccc(-c3cccc(N4CCOCC4)c3)cc12`, in data set [1] (read-out: logP), the log partition coefficient (logP) is 3.6. For the same compound, the log distribution coefficient (logD) in data set [2] (read-out: logD) worked out at 3.2.

For the compound `c1cnc(Nc2ncnc3ccc(-c4cccc(N5CCOCC5)c4)cc23)nc1`, the log partition coefficient (logP) in data set [1] (read-out: logP) turned out to be 3.8. The pH-dependent lipophilicity (logD) in data set [2] (read-out: logD) is 2.5.
